Test results published in paper doi:10.1101/704981v1 (biorxiv, 2019).

Target: EcThrRS (Escherichia coli, UniProt P0A8M3)
Test: tRNA aminoacylation assay, initial rates, dose-response fit
Assay type: biochemical

Chain of EcThrRS (P0A8M3 whole entry): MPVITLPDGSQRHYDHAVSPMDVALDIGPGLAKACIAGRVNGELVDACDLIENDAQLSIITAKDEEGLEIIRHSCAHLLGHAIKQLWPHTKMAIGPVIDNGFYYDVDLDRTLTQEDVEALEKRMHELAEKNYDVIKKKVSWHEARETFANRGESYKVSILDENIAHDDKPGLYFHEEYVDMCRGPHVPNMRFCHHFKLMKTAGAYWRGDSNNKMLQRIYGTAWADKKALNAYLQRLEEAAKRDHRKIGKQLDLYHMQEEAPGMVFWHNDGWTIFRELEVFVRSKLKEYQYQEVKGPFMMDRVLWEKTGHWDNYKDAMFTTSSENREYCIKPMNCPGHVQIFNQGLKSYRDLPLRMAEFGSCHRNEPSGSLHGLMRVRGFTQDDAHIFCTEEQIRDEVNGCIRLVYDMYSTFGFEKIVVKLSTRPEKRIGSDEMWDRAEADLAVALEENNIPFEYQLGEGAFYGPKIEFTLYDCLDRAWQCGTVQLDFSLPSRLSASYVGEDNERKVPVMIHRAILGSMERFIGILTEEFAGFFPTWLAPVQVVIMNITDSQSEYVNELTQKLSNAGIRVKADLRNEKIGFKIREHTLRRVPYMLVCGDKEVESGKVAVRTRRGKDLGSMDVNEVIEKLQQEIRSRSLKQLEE

- IC50: 92 ± 21 nM
SMILES: O=C(N[C@@H]1C(=O)O[C@@H]1Cc1ccc([N+](=O)[O-])cc1)c1cccc(O)c1O [compound 1, obafluorin]
